Laboratory results taken from publication PMC3951324, “Side Chain Hydrophobicity Modulates Therapeutic Activity and Membrane Selectivity of Antimicrobial Peptide Mastoparan-X” (PLoS ONE, 2014).
In brackets after ≈: the same amount, converted by molar mass. Square brackets hold non-standard residues; d marks the D form. Ends that are not written are not given here. Peptide text beside a SMILES is read from it. * marks the point of attachment. ξ: configuration not given here. ξGly(octyl) = CCCCCCCCC(N)C(=O)O; Octanoyl = CCCCCCCC(=O)*; Propionyl = CCC(=O)*

Tests used:
[1] = system: human red blood cells (RBCs); experiment: Haemolysis assay; format: cell-based; details: for % haemolysis: human RBCs; for H5, concentration at which 5% haemolysis has been obtained: purified human erythrocytes, assay as in Etzerodt et al. [14]
Source text: All Fmoc (9H-fluoren-9-yl-methyloxycarbonyl) L-amino acids and HATU (1-[Bis(dimethylamino)methylene]-1H-1,2,3-triazolo[4,5-b]pyridinium 3-oxid hexafluorophosphate, N-[(Dimethylamino)-1H-1,2,3-triazolo-[4,5-b]pyridin-1-ylmethylene]-N-methylmethanaminium hexafluorophosphate N-oxide) were purchased from GLS China (GL Biochem, Shanghai, China). Fmoc-2-amino-decanoic acid was obtained from Watanabe Chemical Industries, Ltd (Hiroshima, Japan). Lys and Trp were side-chain-protected as tert-butoxycarbonyl, Asn was sidechain protected with trityl. Tentagel resin was purchased from NovaBiochem (Merck, Darmstadt, Germany). TFA (trifluoroacetic acid), TIS (triisopropylsilane), HEPES (N-(2-hydroxyethyl)piperazine-N-(2-ethanesulfonic acid)), 2,4,6-collidine and pyrene were purchased from Sigma-Aldrich (Brøndby, Denmark). Pyridine, sodium hydroxide pellets and sodium chloride was purchased from J.T. Baker Chemicals (Phillipsburg, NJ, USA). Filter supports and Hamilton extrusion syringes, POPG (1-palmitoyl-2-oleoyl-sn-glycero-3-[phospho-rac-(1-glycerol)] sodium salt), and POPC (1-palmitoyl-2-oleoyl-sn-glycero-3-phosphocholine) were purchased from Avanti Polar Lipids (Alabaster, AL). All compounds were used without further purification. Membrane filters for extrusion (100 nm pore size, polycarbonate) were purchased from Whatman (Maidstone, UK). Cuvettes (4×10 mm, quartz, Suprasil) were purchased from Hellma (Müllheim, Germany). Purified human erythrocytes for the haemolysis studies were provided by Bioneer (Hørsholm, Denmark), and were stored at 4°C for a maximum of three days before use.
The assay was conducted as described in Etzerodt et al..

[2] = system: Escherichia coli, strain INV-α; experiment: Determination of minimal inhibitory concentration (MIC); format: cell-based; details: LB medium, 37°C, 20 h, shaking, peptide 0.05–50 µM, absorbance 570 nm, triplicates
Procedure: (§1) A stock dilution series with ten points, ranging from 1 µM to 1 mM, was prepared in sterile PBS from freshly dissolved peptides. The dilution series was dispensed in triplicates in 96-deepwell microtiter plates (VWR Denmark, Herlev, Denmark), with 15 µl in each well. Multidispensing with electronic pipettes (Biohit, Tåstrup, Denmark) was used throughout. Lactococcus lactis, strain MG1363 (ATCC, LGC Standards AB, Boras, Sweden) and Escherichia coli, strain INV-α (Invitrogen, Nærum, Denmark) were grown in M9 (Sigma Aldrich, Brøndby, Denmark) and LB medium (Difco, BD Biosciences, Brøndby Denmark), respectively. A single colony was grown overnight at 30°C and 37°C for L.lactis and E.coli respectively. The next day, a fresh culture was started with a twenty-fold dilution of the cells and grown for exactly 60 min (optical density was approximately 0.4 at 570 nm). The cell culture was diluted (300 fold for L.lactis and 1000 fold for E.coli) before adding 150 µl to microtiter plates already containing 15 µl peptide solution and 135 µl fresh medium. […] Plates with L.lactis were sealed with lid and parafilm, and plates with E.coli were sealed with a gas-permeable tape (VWR Denmark, Herlev, Denmark). The plates were incubated at the respective temperatures for 20 hours with shaking (150 rpm). For each measurement, 100 µl of the cell culture was transferred to clear, flat-bottomed microtiter plates, and the absorbance at 570 nm was determined using a Victor3 plate reader (Perkin Elmer, Skovlunde, Denmark). The measurement was conducted in triplicates.

[3] = system: Lactococcus lactis, strain MG1363; experiment: as above; format: cell-based; details: strain MG1363, M9 medium, 30°C, 20 h, shaking; peptide 0.05–50 µM; absorbance 570 nm; triplicates
Procedure: as §1

[4] = Peptide partitioning by ITC; format: physicochemical; details: 37°C; for partition coefficient of insertion Kins/10^5: 10 mM POPC∶POPG (3∶1) LUVs into 20 µM peptide, pH 7.4, Gouy-Chapman-Stern fit, value is Kins divided by 10^5, triplicates; for effective partition coefficient Keff/10^8: derived from Kins, zeff and the surface potential of fully charged membrane (25 mol% negative charge), value is Keff divided by 10^8
Procedure: Lipid stock solutions of POPC and POPG were prepared in chloroform∶methanol (9∶1). Mixtures of POPC∶POPG (3∶1) were prepared and the organic solvent was evaporated under a gentle stream of nitrogen. The lipid films were kept in vacuum (P<0.1 Pa) overnight in order to remove the residual solvent. Buffer containing 10 mM HEPES and 100 mM sodium chloride (pH 7.4) was added to the lipid films, and they were hydrated for 60 min followed by extrusion through 100 nm using an Avanti mini-extruder. Dynamic Light Scattering (DLS, Brookhaven Instrument Corporation, ZetaPALS) was used for measuring the liposome size distribution. The effective lipid concentration was determined by inductively coupled plasma atomic emission spectroscopy (ICP-AES Vista AX, Varian).
The partitioning of AMPs onto lipid membranes was investigated by isothermal titration calorimetry (ITC, iTC200, Microcal, 204 µL cell volume). For the peptide analogues MPX, Ala1 and Ala14, 10 mM […] (3∶1) LUVs were injected (19×2 µL) into a 20 µM peptide solution at T = 37°C. The speed of the stirrer was 1000 rpms, and all titration were initiated with a 0.5 µL pre-injection. The heat-traces were integrated using custom made software, and the heat of partitioning was analysed using a partitioning isotherm based on Gouy-Chapman-Stern description of the electrostatic interaction of the peptide and membrane, [32]. The effective charge of the peptide (zeff), the partitioning coefficient of insertion (Kins), the molar enthalpy of partitioning ( [drawing 4] ), and the heat of dilution (qdil) were extracted as fitting parameters. The effective partitioning coefficient was derived as [drawing 5] where F is Faradays constant, [drawing 6] is the electrostatic potential evaluated at the interface of a fully charged membrane (25mol% negative charge before insertion of the first peptide), and R is the ideal gas constant. The instrument was electrically calibrated, and blank titration of LUVs into buffer was performed to ensure that heat of dilution could be modelled as a constant in the data analysis. Each titration was conducted in triplicates.

Compound: CCCCCCCCC(NC(=O)[C@H](CC(C)C)NC(=O)[C@H](CCCCN)NC(=O)[C@H](CCCCN)NC(=O)[C@H](C)NC(=O)[C@H](CCSC)NC(=O)[C@H](C)NC(=O)[C@H](C)NC(=O)[C@@H](NC(=O)CNC(=O)[C@H](CCCCN)NC(=O)[C@H](Cc1c[nH]c2ccccc12)NC(=O)[C@H](CC(N)=O)NC(=O)[C@@H](N)[C@@H](C)CC)[C@@H](C)CC)C(N)=O (stereo partly shown) [Adec14] (H-INWKGIAAMAKKL[ξGly(octyl)]-NH2)
- % haemolysis ([1]; 50 µM peptide): full haemolysis
- H5, concentration at which 5% haemolysis has been obtained [1]: 0.8 ± 0.2 µM
- MIC (E. coli) [2]: 3.3 ± 0.8 µM (≈ 5.32 µg/mL)
- MIC (L. lactis) [3]: 1.7 ± 0.4 µM (≈ 2.74 µg/mL)

Compound: INWKGIALMAKKLL-NH2 [Leu8]
- H5, concentration at which 5% haemolysis has been obtained [1]: 14 ± 2 µM
- MIC (E. coli) [2]: 7 ± 3 µM
- MIC (L. lactis) [3]: 2.5 ± 1.3 µM

Compound: INWKGIAAMAKKLA-NH2 [Ala14]
- partition coefficient of insertion Kins/10^5 [4]: 1.4±0.3
- effective partition coefficient Keff/10^8 [4]: 1.1±0.2
- % haemolysis ([1]; 50 µM peptide): ~1.5%
- % haemolysis ([1]; 200 µM peptide): ~4%
- H5, concentration at which 5% haemolysis has been obtained [1]: 220 ± 20 µM
- MIC (E. coli) [2]: 33 ± 8 µM
- MIC (L. lactis) [3]: 21 ± 4 µM

Compound: ANWKGIAAMAKKLL-NH2 [Ala1]
- partition coefficient of insertion Kins/10^5 [4]: 1.1±0.1
- effective partition coefficient Keff/10^8 [4]: 25±7
- % haemolysis ([1]; 50 µM peptide): ~1.5%
- % haemolysis ([1]; 200 µM peptide): ~4%
- H5, concentration at which 5% haemolysis has been obtained [1]: 230 ± 10 µM
- MIC (E. coli) [2]: 33 ± 8 µM
- MIC (L. lactis) [3]: 18 ± 7 µM

Compound: CCC(=O)N[C@H](C(=O)N[C@@H](CC(N)=O)C(=O)N[C@@H](Cc1c[nH]c2ccccc12)C(=O)N[C@@H](CCCCN)C(=O)NCC(=O)N[C@H](C(=O)N[C@@H](C)C(=O)N[C@@H](C)C(=O)N[C@@H](CCSC)C(=O)N[C@@H](C)C(=O)N[C@@H](CCCCN)C(=O)N[C@@H](CCCCN)C(=O)N[C@@H](CC(C)C)C(=O)N[C@@H](CC(C)C)C(N)=O)[C@@H](C)CC)[C@@H](C)CC [PAMPX] (Propionyl-INWKGIAAMAKKLL-NH2)
- % haemolysis ([1]; 50 µM peptide): 10%
- H5, concentration at which 5% haemolysis has been obtained [1]: 25 ± 1 µM
- MIC (E. coli) [2]: 21 ± 4 µM (≈ 33.9 µg/mL)
- MIC (L. lactis) [3]: 3.3 ± 0.8 µM (≈ 5.32 µg/mL)

Compound: CCCCCCCC(=O)N[C@H](C(=O)N[C@@H](CC(N)=O)C(=O)N[C@@H](Cc1c[nH]c2ccccc12)C(=O)N[C@@H](CCCCN)C(=O)NCC(=O)N[C@H](C(=O)N[C@@H](C)C(=O)N[C@@H](C)C(=O)N[C@@H](CCSC)C(=O)N[C@@H](C)C(=O)N[C@@H](CCCCN)C(=O)N[C@@H](CCCCN)C(=O)N[C@@H](CC(C)C)C(=O)N[C@@H](CC(C)C)C(N)=O)[C@@H](C)CC)[C@@H](C)CC [OAMPX] (Octanoyl-INWKGIAAMAKKLL-NH2)
- % haemolysis ([1]; 50 µM peptide): full haemolysis
- H5, concentration at which 5% haemolysis has been obtained [1]: 1.1 ± 0.3 µM
- MIC (E. coli) [2]: 5 ± 1 µM (≈ 8.41 µg/mL)
- MIC (L. lactis) [3]: 3.3 ± 0.8 µM (≈ 5.55 µg/mL)

Compound: CCCCCCCCC(N)C(=O)N[C@@H](CC(N)=O)C(=O)N[C@@H](Cc1c[nH]c2ccccc12)C(=O)N[C@@H](CCCCN)C(=O)NCC(=O)N[C@H](C(=O)N[C@@H](C)C(=O)N[C@@H](C)C(=O)N[C@@H](CCSC)C(=O)N[C@@H](C)C(=O)N[C@@H](CCCCN)C(=O)N[C@@H](CCCCN)C(=O)N[C@@H](CC(C)C)C(=O)N[C@@H](CC(C)C)C(N)=O)[C@@H](C)CC (stereo partly shown) [Adec1] (H-[ξGly(octyl)]NWKGIAAMAKKLL-NH2)
- % haemolysis ([1]; 50 µM peptide): full haemolysis
- H5, concentration at which 5% haemolysis has been obtained [1]: 0.7 ± 0.1 µM
- MIC (E. coli) [2]: 3.3 ± 0.8 µM (≈ 5.32 µg/mL)
- MIC (L. lactis) [3]: 1.7 ± 0.4 µM (≈ 2.74 µg/mL)

Compound: CCCCCCCCC(NC(=O)[C@H](C)NC(=O)[C@@H](NC(=O)CNC(=O)[C@H](CCCCN)NC(=O)[C@H](Cc1c[nH]c2ccccc12)NC(=O)[C@H](CC(N)=O)NC(=O)[C@@H](N)[C@@H](C)CC)[C@@H](C)CC)C(=O)N[C@@H](CCSC)C(=O)N[C@@H](C)C(=O)N[C@@H](CCCCN)C(=O)N[C@@H](CCCCN)C(=O)N[C@@H](CC(C)C)C(=O)N[C@@H](CC(C)C)C(N)=O (stereo partly shown) [Adec8] (H-INWKGIA[ξGly(octyl)]MAKKLL-NH2)
- % haemolysis ([1]; 50 µM peptide): full haemolysis
- H5, concentration at which 5% haemolysis has been obtained [1]: 1 ± 1 µM
- MIC (E. coli) [2]: 4.2 ± 0.8 µM (≈ 6.95 µg/mL)
- MIC (L. lactis) [3]: 4.2 ± 0.8 µM (≈ 6.95 µg/mL)
